Experimental data published in ChEMBL document CHEMBL1145260, “Design, synthesis and structure-activity relationships of 6-O-arylpropargyl diazalides with potent activity against multidrug-resistant Streptococcus pneumoniae” (2005).
Values after ≈ are worked out from the molar mass of the structure shown.

What was measured:
Assay type in all cases: functional
[1] = tested on: Staphylococcus aureus; experiment: Minimum inhibitory concentration against Staphylococcus aureus A5177 (erythromycin-resistant strain
[2] = tested on: Streptococcus pyogenes; experiment: Minimum inhibitory concentration against Streptococcus pyogenes 930 (erythromycin-resistant strain)
[3] = tested on: Staphylococcus aureus; experiment: Minimum inhibitory concentration against Staphylococcus aureus 6538P (erythromycin-susceptible strain)
[4] = tested on: Streptococcus pneumoniae; experiment: Minimum inhibitory concentration against Streptococcus pneumoniae 5649 strain
[5] = tested on: Streptococcus pyogenes; experiment: Minimum inhibitory concentration against Streptococcus pyogenes EES61 (erythromycin-susceptible strain)
[6] = tested on: Streptococcus pneumoniae; experiment: Minimum inhibitory concentration against Streptococcus pneumoniae ATCC 6303 (erythromycin-susceptible strain)
[7] = tested on: Haemophilus influenzae; experiment: Minimum inhibitory concentration against Haemophilus influenzae GYR1435 (erythromycin susceptible strain)
[8] = tested on: Streptococcus pneumoniae; experiment: Minimum inhibitory concentration against Streptococcus pneumoniae 5979 strain

| Structure (SMILES) | MIC [1] [µg/mL] | MIC [2] [µg/mL] | MIC [3] [µg/mL] | MIC [4] [µg/mL] | MIC [5] [µg/mL] | MIC [6] [µg/mL] | MIC [7] [µg/mL] | MIC [8] [µg/mL] |
| --- | --- | --- | --- | --- | --- | --- | --- | --- |
| CC[C@H]1OC(=O)[C@H](C)[C@@H](O[C@H]2C[C@@](C)(OC)[C@@H](O)[C@H](C)O2)[C@H](C)[C@@H](O[C@@H]2O[C@H](C)C[C@H](N(C)C)[C@H]2O)[C@](C)(O)C[C@@H](C)C(=O)[C@H](C)[C@@H](O)[C@]1(C)O [ERYTHROMYCIN] | 6.2 (≈ 8.45 µM) | > 128 | 0.39 (≈ 0.531 µM) | 16 (≈ 21.8 µM) | 0.03 (≈ 0.0409 µM) | 0.06 (≈ 0.0818 µM) | 8 (≈ 10.9 µM) | > 128 |
| CC[C@H]1OC(=O)[C@H](C)C(=O)[C@H](C)[C@@H](O[C@@H]2O[C@H](C)C[C@H](N(C)C)[C@H]2O)[C@@](C)(OCC#Cc2cnc3ccccc3c2)C[C@@H](C)C2=NCCN3C(=O)O[C@@]1(C)[C@H]3[C@H]2C | 0.1 (≈ 0.127 µM) | 1 (≈ 1.27 µM) | 0.1 (≈ 0.127 µM) | 0.25 (≈ 0.317 µM) | 0.015 (≈ 0.019 µM) | ≤ 0.004 | 2 (≈ 2.53 µM) | 2 (≈ 2.53 µM) |
| CC[C@H]1OC(=O)[C@H](C)C(=O)[C@H](C)[C@@H](O[C@@H]2O[C@H](C)C[C@H](N(C)C)[C@H]2O)[C@@](C)(OCC#Cc2ccc(-c3ccccn3)cc2)C[C@@H](C)C2=NCCN3C(=O)O[C@@]1(C)[C@H]3[C@H]2C | 0.03 (≈ 0.0368 µM) | 8 (≈ 9.82 µM) | 0.25 (≈ 0.307 µM) | ≤ 0.008 | ≤ 0.008 | ≤ 0.008 | 1 (≈ 1.23 µM) | ≤ 0.008 |
| CC[C@H]1OC(=O)[C@@](C)(F)C(=O)[C@H](C)[C@@H](O[C@@H]2O[C@H](C)C[C@H](N(C)C)[C@H]2O)[C@@](C)(OCC#Cc2cnc3c(F)cccc3c2)C[C@@H](C)C2=NCCN3C(=O)O[C@@]1(C)[C@H]3[C@H]2C | 0.125 (≈ 0.152 µM) | 0.25 (≈ 0.303 µM) | 0.25 (≈ 0.303 µM) | 0.125 (≈ 0.152 µM) | ≤ 0.008 | ≤ 0.008 | 4 (≈ 4.85 µM) | 0.125 (≈ 0.152 µM) |
| CC[C@H]1OC(=O)[C@H](C)C(=O)[C@H](C)[C@@H](O[C@@H]2O[C@H](C)C[C@H](N(C)C)[C@H]2O)[C@@](C)(OCC#Cc2ccc(-c3nnn(C)n3)s2)C[C@@H](C)C2=NCCN3C(=O)O[C@@]1(C)[C@H]3[C@H]2C | 0.125 (≈ 0.151 µM) | 2 (≈ 2.42 µM) | 0.5 (≈ 0.605 µM) | 0.06 (≈ 0.0726 µM) | ≤ 0.008 | ≤ 0.008 | 4 (≈ 4.84 µM) | 0.003 (≈ 0.00363 µM) |
| CC[C@H]1OC(=O)[C@H](C)C(=O)[C@H](C)[C@@H](O[C@@H]2O[C@H](C)C[C@H](N(C)C)[C@H]2O)[C@@](C)(OCC#Cc2cccnc2)C[C@@H](C)C2=NCCN3C(=O)O[C@@]1(C)[C@H]3[C@H]2C | 0.2 (≈ 0.271 µM) | 64 (≈ 86.6 µM) | 0.2 (≈ 0.271 µM) | 1 (≈ 1.35 µM) | 0.03 (≈ 0.0406 µM) | 0.03 (≈ 0.0406 µM) | 2 (≈ 2.71 µM) | > 128 |
| CC[C@H]1OC(=O)[C@H](C)C(=O)[C@H](C)[C@@H](O[C@@H]2O[C@H](C)C[C@H](N(C)C)[C@H]2O)[C@](C)(OCC=Cc2cnc3ccccc3c2)C[C@@H](C)C(=O)[C@H](C)[C@H]2NC(=O)O[C@@]21C [CETHROMYCIN] | 0.05 (≈ 0.0653 µM) | 1 (≈ 1.31 µM) | 0.05 (≈ 0.0653 µM) | 0.25 (≈ 0.326 µM) | < 0.005 | 0.03 (≈ 0.0392 µM) | 2 (≈ 2.61 µM) | 16 (≈ 20.9 µM) |
| CC[C@H]1OC(=O)[C@H](C)C(=O)[C@H](C)[C@@H](O[C@@H]2O[C@H](C)C[C@H](N(C)C)[C@H]2O)[C@@](C)(OCC#Cc2cnc3c(F)cccc3c2)C[C@@H](C)C2=NCCN3C(=O)O[C@@]1(C)[C@H]3[C@H]2C | 0.1 (≈ 0.124 µM) | 0.5 (≈ 0.62 µM) | 0.06 (≈ 0.0744 µM) | 0.25 (≈ 0.31 µM) | ≤ 0.008 | 0.004 (≈ 0.00496 µM) | 2 (≈ 2.48 µM) | 4 (≈ 4.96 µM) |
